Source: patent US12297285B2 (Orna Therapeutics, Inc., priority 2022, dated 2025)

Columns and labels:
Experiment in all cases: IRES screening, Gaussia luciferase from LNP-oRNA (Table 27)
Conditions in all cases: Gaussia luciferase luminescence in supernatant 48 hours after LNP-oRNA transfection, normalized to control (caprine kobuvirus IRES)
[1] = test system: primary human skeletal myotubes
[2] = test system: primary human hepatocytes
[3] = test system: activated primary human T cells

Row | SMILES | [Mod] Fold Change Myo [1] [Fold Change] | [Mod] PHH Fold Change [2] [Fold Change] | [Mod] T Fold Change [3] [Fold Change]
1 | CC(C)=CCC/C(C)=C/C(=O)OCCCCCCC(CCCCCCOC(=O)/C=C(\C)CCC=C(C)C)OC(=O)CCCn1ccnc1 (stereo not drawn) [Lipid 10a-120] | 0.2755 | 0.4893 | 0.7019
2 | CC(CCOC(=O)CCCCCCCCC(CCCCCCCCC(=O)OCCC(C)CC(C)(C)C)OC(=O)CCCn1ccnc1)CC(C)(C)C (stereo not drawn) [Lipid 10a-105] | 0.2496 | 0.642 | 0.329
3 | Cc1nccn1CCCC(=O)OC(CCCCCCOC(=O)CC(C)CCCC(C)C)CCCCCCOC(=O)CC(C)CCCC(C)C (stereo not drawn) [Lipid 10a-117] | 0.04273 | 0.4258 | 0.04612
4 | CCCCCCCCC(CC)OC(=O)CCCCCCCN(CCCCCCCC(=O)OC(CCCCCCCC)CCCCCCCC)CCCn1ccnc1C (stereo not drawn) [Lipid 10a-138] | 0.3723 | 0.6157 | 0.6378
5 | CCCCCCCCCN(CCn1ccnc1)C(CCCCCCCCC(=O)OCC(CCCC)CCCCCC)CCCCCCCCC(=O)OCC(CCCC)CCCCCC (stereo not drawn) [Lipid 10a-146] | 0.04323 | 0.5873 | 0.03465
6 | CCCCCCCCCCCCCCN(Cc1nccn1C)C(CCCCCCCCC(=O)OCC(CCCC)CCCCCC)CCCCCCCCC(=O)OCC(CCCC)CCCCCC (stereo not drawn) [Lipid 10a-136] | 0.04786 | 0.4286 | 0.04232
7 | CC(C)=CCC/C(C)=C/C(=O)OCCCCCCC(CCCCCCOC(=O)/C=C(\C)CCC=C(C)C)OC(=O)CCCn1ccnc1C (stereo not drawn) [Lipid 10a-121] | 0.6276 | 0.9977 | 1.029
8 | CCCCCCCCCCCCCCN(CCC(C)n1ccnc1)C(CCCCCCCCC(=O)OCC(CCCC)CCCCCC)CCCCCCCCC(=O)OCC(CCCC)CCCCCC (stereo not drawn) [Lipid 10a-134] | 0.04662 | 0.4673 | 0.05294
9 | CC(C)=CCCC(C)CC(=O)OCCCCCCC(CCCCCCOC(=O)CC(C)CCC=C(C)C)OC(=O)CCCn1ccnc1C (stereo not drawn) [Lipid 10a-119] | 0.198 | 0.6212 | 0.9876
10 | CCCCC/C=C\C/C=C\CCCCCCCC(=O)OCC(COC(=O)CCC(OCCCCCCCC)OCCCCCCCC)COC(=O)OCCCn1ccnc1C (stereo not drawn) [Lipid 10a-141] | 0.04025 | 0.547 | 0.03106
11 | CCCCCCCCC(CCCCCC)C(=O)OCCCCCCN(CCCCCCOC(=O)C(CCCCCC)CCCCCCCC)CCC(C)n1ccnc1 (stereo not drawn) [Lipid 10a-130] | 0.04058 | 0.5728 | 0.06076
12 | CCCCCCCCCOC(=O)CCCCCCCN(CCCCCCCC(=O)OC(CCCCCCCC)CCCCCCCC)Cc1nccn1C [Lipid 10a-133] | 0.03933 | 0.541 | 0.03004
13 | CCCCCCCCCN(CCCCn1ccnc1C)C(CCCCCCCCC(=O)OCC(CCCC)CCCCCC)CCCCCCCCC(=O)OCC(CCCC)CCCCCC (stereo not drawn) [Lipid 10a-147] | 0.04264 | 0.5594 | 0.03662
14 | CCCCC(C)CCC(=O)OCCCCCCC(CCCCCCOC(=O)CCC(C)CCCC)OC(=O)CCCn1ccnc1 (stereo not drawn) [Lipid 10a-113] | 0.3171 | 0.8279 | 0.4373
15 | CCCCCCCCC(CCCCCC)C(=O)OCCCCCCN(CCCCCCOC(=O)C(CCCCCC)CCCCCCCC)CCn1ccnc1C (stereo not drawn) [Lipid 10a-139] | 0.0597 | 0.5206 | 0.09732
16 | CCCCC(CC)CCC(=O)OCCCCCCN(CCCCCCOC(=O)CCC(CC)CCCC)CCCn1ccnc1C (stereo not drawn) [Lipid 10a-110] | 0.2424 | 0.7175 | 0.5133
17 | CC(CCOC(=O)CCCCCCCCN(CCCCCCCCC(=O)OCCC(C)CC(C)(C)C)CCCn1ccnc1)CC(C)(C)C (stereo not drawn) [Lipid 10a-104] | 0.07607 | 0.7745 | 0.1688
18 | CCCCCCCCC(CCCCCC)C(=O)OCCCCCCN(CCCCCCOC(=O)C(CCCCCC)CCCCCCCC)Cc1nccn1C (stereo not drawn) [Lipid 10a-128] | 0.4893 | 1.021 | 0.5837

Row | SMILES | [Mod] Fold Change Myo [1] [Fold Change] | [Mod] PHH Fold Change [2] [Fold Change] | [Mod] T Fold Change [3] [Fold Change]
19 | CCCCC/C=C\C/C=C\CCCCCCCC(=O)OCC(COC(=O)CCC(OCCCCCCCC)OCCCCCCCC)COC(=O)OCCCn1ccnc1 (stereo not drawn) [Lipid 10a-140] | 0.1601 | 0.7154 | 0.3995
20 | CC(C)CCC(C)CCOC(=O)CCCCCCCN(CCCCCCCC(=O)OCCC(C)CCC(C)C)CCCn1ccnc1 (stereo not drawn) [Lipid 10a-100] | 0.4952 | 1.228 | 0.4826
21 | CCCCC(C)CCC(=O)OCCCCCCC(CCCCCCOC(=O)CCC(C)CCCC)OC(=O)CCCn1ccnc1C (stereo not drawn) [Lipid 10a-115] | 0.05074 | 0.425 | 0.04693
22 | CCCCCCCCC(CCCCCC)C(=O)OCCCCCCN(CCCn1ccnc1C)CC(O)CCCCOC(=O)C(CCCCCC)CCCCCCCC (stereo not drawn) [Lipid 10a-149] | 0.03919 | 0.7118 | 0.02893
23 | CCCCC(CC)CCC(=O)OCCCCCCC(CCCCCCOC(=O)CCC(CC)CCCC)OC(=O)CCCn1ccnc1C (stereo not drawn) [Lipid 10a-111] | 0.2223 | 0.787 | 0.4651
24 | Cc1nccn1CCCN(CCCCCCCCC(=O)OCCC(C)CC(C)(C)C)CCCCCCCCC(=O)OCCC(C)CC(C)(C)C (stereo not drawn) [Lipid 10a-106] | 0.3524 | 1.093 | 0.648
25 | CCCCCCCCCN(CCn1ccnc1C)C(CCCCCCCCC(=O)OCC(CCCC)CCCCCC)CCCCCCCCC(=O)OCC(CCCC)CCCCCC (stereo not drawn) [Lipid 10a-145] | 0.03927 | 0.6359 | 0.0263
26 | Cc1nccn1CCCN(CCCCCCOC(=O)CC(C)CCCC(C)C)CCCCCCOC(=O)CC(C)CCCC(C)C (stereo not drawn) [Lipid 10a-123] | 0.03971 | 0.638 | 0.03011
27 | CCCCCCCCCN(CCCn1ccnc1)C(CCCCCCCCC(=O)OCC(CCCC)CCCCCC)CCCCCCCCC(=O)OCC(CCCC)CCCCCC (stereo not drawn) [Lipid 10a-142] | 0.03852 | 0.468 | 0.02743
28 | Cc1nccn1CCCC(=O)OC(CCCCCCCC(=O)OCC(CCC(C)C)C(C)C)CCCCCCCC(=O)OCC(CCC(C)C)C(C)C (stereo not drawn) [Lipid 10a-98] | 0.2906 | 0.788 | 0.677
29 | CC(C)CCCC(C)CC(=O)OCCCCCCN(CCCCCCOC(=O)CC(C)CCCC(C)C)CCCn1ccnc1 (stereo not drawn) [Lipid 10a-122] | 0.3886 | 0.8322 | 0.8876
30 | CCCCCCCCCCCCC(O)CN(CCCCCCCC(=O)OC(CCCCCCCC)CCCCCCCC)CCCn1ccnc1C (stereo not drawn) [Lipid 10a-150] | 0.03864 | 0.5147 | 0.02705
31 | CCCCCCCCCOC(=O)CCCCCCCN(CCCCCCCC(=O)OC(CCCCCCCC)CCCCCCCC)CCn1ccnc1 [Lipid 10a-132] | 0.03998 | 0.5643 | 0.03118
32 | CC(C)CCC(COC(=O)CCCCCCCC(CCCCCCCC(=O)OCC(CCC(C)C)C(C)C)OC(=O)CCCn1ccnc1)C(C)C (stereo not drawn) [Lipid 10a-97] | 0.2602 | 1.163 | 0.3532
33 | CCCCCCCCC(CCCCCC)OCCOC(=O)CCN(CCCn1ccnc1C)CCC(=O)OCCOC(CCCCCC)CCCCCCCC (stereo not drawn) [Lipid 10a-143] | 0.03901 | 0.4209 | 0.03265
34 | CCCCCCCCC(CCCCCC)C(=O)OCCCCCCN(CCCCCCOC(=O)C(CCCCCC)CCCCCCCC)CCn1ccnc1 (stereo not drawn) [Lipid 10a-129] | 0.05369 | 0.6689 | 0.08945
35 | CCCCC(C)CCC(=O)OCCCCCCN(CCCCCCOC(=O)CCC(C)CCCC)CCCn1ccnc1C (stereo not drawn) [Lipid 10a-114] | 0.05835 | 0.7898 | 0.06812
36 | Cc1nccn1CCCN(CCCCCCCC(=O)OCCC(C)CCC(C)C)CCCCCCCC(=O)OCCC(C)CCC(C)C (stereo not drawn) [Lipid 10a-102] | 0.04469 | 0.5141 | 0.031
